Values quoted from earlier work in patent publication US20210319872A1, “DRUG AND DEVICE COMBINATION PRODUCTS WITH IMPROVED SAFETY AND EFFICACY PROFILES” (priority 2016, published 2021).
Read-outs that look alike come from different tables or passages of the source.

In the case of CN1CCc2nc(C(=O)N[C@@H]3C[C@@H](C(=O)N(C)C)CC[C@@H]3NC(=O)C(=O)Nc3ccc(Cl)cn3)sc2C1 [Edoxaban (Savaysa)], the “Bleeding, Major” value (in vivo) is listed as 3.1%; DVT or pulmonary embolism, 1.4%), the Hemorrhagic cerebral infarction (in vivo) is listed as “fibrillation, 0.3%), Intracranial hemorrhage (Nonvalvular atrial” and the Interstitial lung disease (in vivo) is listed as 0.2%). The Intracranial hemorrhage (in vivo) was “fibrillation, 0.5%; DVT or pulmonary embolism, 0.1%)”, the “Liver function tests abnormal” value (in vivo) was “fibrillation, 4.8%; DVT or pulmonary embolism, 7.8%)” and the Rash (in vivo) was “Dermatologic: Rash (3.6% to 4.2%)”.

For CC(NC(C)(C)C)C(=O)c1cccc(Cl)c1 (centres unmarked) [Bupropion (Wellbutrin)], the Abdominal pain (in vivo) is given as “Gastrointestinal: Abdominal pain (2% to 9%), Constipation (5% to”, the Agitation (in vivo) is given as “Psychiatric: Agitation (2% to 9%)” and the Confusion (in vivo) is given as “Neurologic: Confusion (major depressive disorder, 8%), Dizziness”. For the same compound, the Dizziness (in vivo) was “(6% to 11%), Headache (25% to 34%), Insomnia (11% to 20%)”, the Headache (in vivo) was “(6% to 11%), Headache (25% to 34%), Insomnia (11% to 20%)” and the Hostile behavior (in vivo) was “Hallucinations, Hostile behavior (major depressive disorder, 6%),”. For the same compound, the Insomnia (in vivo) was “(6% to 11%), Headache (25% to 34%), Insomnia (11% to 20%)”, the Nasopharyngitis (in vivo) was “Respiratory: Nasopharyngitis (seasonal affective disorder, 13%),” and the Nausea (in vivo) was 10%), Nausea (13% to 18%), Xerostomia (17% to 26%). For the same compound, the Pharyngitis (in vivo) was “Pharyngitis (major depressive disorder, 3% to 11%), Upper”, the Seizure (in vivo) was “Neurologic: Seizure (major depressive disorder, 0.1% to 0.4%)” and the Tachycardia (in vivo) was “Cardiovascular: Tachycardia (major depressive disorder, 11%)”. The Upper respiratory infection (in vivo) was “respiratory infection (seasonal affective disorder, 9%)”, the Weight gain (in vivo) was “Endocrine metabolic: Weight gain (2% to 9%), Weight loss (major” and the Weight loss (in vivo) was “depressive disorder, 14% to 19%)”. For the same compound, the Xerostomia (in vivo) was 10%), Nausea (13% to 18%), Xerostomia (17% to 26%).

In the case of Cc1ccsc1C(=CCCN1CCC[C@@H](C(=O)O)C1)c1sccc1C [Gabitril], the Confusion (in vivo) is listed as 5%, the Disturbance in speech (in vivo) is listed as 4% and the Nausea (in vivo) is listed as 11%. For the same compound, the Pruritus (in vivo) was “Dermatologic: Pruritus (2%)”, the “Serious side effect, Dermatologic” value (listed without frequency) was “Dermatologic: Stevens-Johnson syndrome” and the “Serious side effect, Neurologic” value (listed without frequency) was “Seizure, in patients without epilepsy”. For the same compound, the “Serious side effect, Psychiatric” value (listed without frequency) was “Psychiatric: Suicidal thoughts”.

In the case of CS(=O)(=O)O.Fc1ccc([C@@H]2CCNC[C@H]2COc2ccc3c(c2)OCO3)cc1 [Brisdelle], the Asthenia (in vivo) is given as “Neurologic: Asthenia (2.9% to 22%), Dizziness (6% to 14%),”, the Constipation (in vivo) is given as “Gastrointestinal: Constipation (4.9% to 16%), Diarrhea (7.9% to” and the Diaphoresis (in vivo) is given as “Dermatologic: Diaphoresis (1% to 14%)”. The Dizziness (in vivo) was “Neurologic: Asthenia (2.9% to 22%), Dizziness (6% to 14%),”, the Insomnia (in vivo) was “vasomotor symptoms, 6.3%), Insomnia (11% to 24%), Somnolence” and the Nausea (in vivo) was ≤ 19.2%), Loss of appetite (2% to 9%), Nausea (up to 36.3%),. The Reduced libido (in vivo) was 9%), Reduced libido (males, 6% to 15%; females, 0% to 9%), the “Serious side effect, Other” value (in vivo) was “Other: Serotonin syndrome” and the “Serious side effect, Psychiatric” value (in vivo) was “Psychiatric: Depression, Exacerbation, Suicidal thoughts, Suicide”. The Somnolence (in vivo) was “(12.7% to 24%), Tremor (up to 14.7%)”, the Tremor (in vivo) was “(12.7% to 24%), Tremor (up to 14.7%)” and the Xerostomia (in vivo) was “Xerostomia (10.8% to 20.6%)”.
